The record followed here is patent US5543406A, “Inhibitors of 5-α-testosterone reductase” (priority 1994, dated 1996).

The target of assay [1] is Steroid 5-α-Reductase. Nature of the assay: Steroid 5-α-reductase in vitro assay, rat prostate microsomes. The note with it: rat prostatic microsomes; 100 nM [3H]-testosterone, 1 mM NADPH, 60 minutes at 37° C.; read-out: ID50 Rat. It is filed as biochemical.
In assay [2] the target is T1, Steroid 5-α-Reductase (Homo sapiens, UniProt P31213).
T1 construct: microsomes derived from prostate tissue of benign prostatic hypertrophy (BPH) patients; from tissue; host or cells: prostate tissue of BPH patients, microsomes
T1 sequence (P31213 1-254): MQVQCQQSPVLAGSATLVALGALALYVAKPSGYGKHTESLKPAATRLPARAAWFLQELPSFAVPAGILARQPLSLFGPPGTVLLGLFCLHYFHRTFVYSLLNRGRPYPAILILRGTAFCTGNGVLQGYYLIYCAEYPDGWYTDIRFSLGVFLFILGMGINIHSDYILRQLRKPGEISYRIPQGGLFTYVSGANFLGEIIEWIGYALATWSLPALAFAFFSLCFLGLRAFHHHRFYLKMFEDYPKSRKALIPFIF
Nature of the assay: Steroid 5-α-reductase in vitro assay, human prostate microsomes (BPH patients). The format is biochemical. The note with it: human prostatic microsomes; 100 nM [3H]-testosterone, 1 mM NADPH, 60 minutes at 37° C.

In the case of `CCN(CC)C(=O)[C@H]1CC[C@H]2[C@@H]3CNC4=CC(=O)CC[C@]4(C)[C@H]3CC[C@]12C` [Compound 1, 17β-N,N-Diethylcarbamoyl-6-azaandrost-4-en-3-one], the IC50 on Steroid 5-α-Reductase [1] was 10 to 100 nM; against Steroid 5-α-Reductase [2], less than 10 nM.

With `CCN(CC)C(=O)[C@H]1CC[C@H]2[C@@H]3CNC4=CC(=O)C(C)C[C@]4(C)[C@H]3CC[C@]12C` (stereo partly drawn) [Compound 75, 17β-N,N-Diethylcarbamoyl-6-azaandrost-2-(α,β)-methyl-4-en-3-one], the IC50 on Steroid 5-α-Reductase [1] is 100 to 1000 nM; on Steroid 5-α-Reductase [2], 10 to 100 nM.

Consider `C[C@]12CC[C@H]3[C@@H](CNC4=CC(=O)CC[C@@]43C)[C@@H]1CC[C@@H]2C(=O)OC1C2CC3CC(C2)CC1C3` (stereo partly drawn) [Compound 73, 17β-Carbo-(2-adamantyl)-oxy-6-azaandrost-4-en-3-one], for which the IC50 on Steroid 5-α-Reductase [1] and against Steroid 5-α-Reductase [2] was less than 10 nM throughout.

For the compound `C[C@]12CC[C@H]3[C@@H](CNC4=C(Br)C(=O)CC[C@@]43C)[C@@H]1CC[C@@H]2C(=O)NC12CC3CC(CC(C3)C1)C2` [Compound 55, 17β-N-1-Adamantylcarbamoyl-6-azaandrost-4-bromo-4-en-3-one], the IC50 at Steroid 5-α-Reductase [1] and against Steroid 5-α-Reductase [2] was less than 10 nM in each case.

For `C[C@]12CC[C@H]3[C@@H](CNC4=CC(=O)CC[C@@]43C)[C@@H]1CC[C@@H]2C(=O)NCC1CC2CCC1C2` (stereo partly drawn) [Compound 60, 17β-N-exo-2-Norbornylmethylcarbamoyl-6-azaandrost-4-en-3-one], the IC50 at Steroid 5-α-Reductase [1] is less than 10 nM; at Steroid 5-α-Reductase [2], 10 to 100 nM.

Regarding `CCN(CC)C(=O)[C@H]1CC[C@H]2[C@@H]3CN(C)C4=CC(=O)C=C[C@]4(C)[C@H]3CC[C@]12C` [Compound 27, 17β-N,N-Diethylcarbamoyl-6-methyl-6-azaandrost-1,4-dien-3-one], the IC50 fell in the range of 100 to 1000 nM on Steroid 5-α-Reductase [1] and 10 to 100 nM against Steroid 5-α-Reductase [2].

Consider `CC(C)N(C(=O)[C@H]1CC[C@H]2[C@@H]3CNC4=CC(=O)CC[C@]4(C)[C@H]3CC[C@]12C)C(C)C` [Compound 17, 17β-N,N-Diisopropylcarbamoyl-6-azaandrost-4-en-3-one], for which the results for the IC50 on Steroid 5-α-Reductase [1] and against Steroid 5-α-Reductase [2] were 100 to 1000 nM and less than 10 nM, respectively.

Turning to `CN1C[C@H]2[C@@H]3CC[C@H](C(=O)NC45CC6CC(CC(C6)C4)C5)[C@@]3(C)CC[C@@H]2[C@@]2(C)C=CC(=O)C=C12` [Compound 31, 17β-N-1-Adamantylcarbamoyl-6-methyl-6-azaandrost-1,4-dien-3-one], the IC50 at Steroid 5-α-Reductase [1] was 10 to 100 nM; against Steroid 5-α-Reductase [2] it was less than 10 nM.

Turning to `C[C@]12CC[C@H]3[C@@H](CNC4=CC(=O)CC[C@@]43C)[C@@H]1CC[C@@H]2C(=O)OC12CC3CC(CC(C3)C1)C2` [Compound 74, 17β-Carbo-(1-adamantyl)-oxy-6-azaandrost-4-en-3-one], the IC50 is 10 to 100 nM on Steroid 5-α-Reductase [1] and less than 10 nM at Steroid 5-α-Reductase [2].

With `CC1=C2N(C)C[C@H]3[C@@H]4CC[C@H](C(=O)NC56CC7CC(CC(C7)C5)C6)[C@@]4(C)CC[C@@H]3[C@@]2(C)CCC1=O` [Compound 57, 17β-N-1-Adamantylcarbamoyl-6-methyl-6-azaandrost-4-methyl-4-en-3-one], the IC50 on Steroid 5-α-Reductase [1] is less than 10 nM; against Steroid 5-α-Reductase [2] it was 10 to 100 nM.

As for `CC1=C2NC[C@H]3[C@@H]4CC[C@H](C(=O)NC(C)(C)C)[C@@]4(C)CC[C@@H]3[C@@]2(C)CCC1=O` [Compound 62, 17β-N-t-Butylcarbamoyl-6-azaandrost-4-methyl-4-en-3-one], the IC50 at Steroid 5-α-Reductase [1] and at Steroid 5-α-Reductase [2] was 10 to 100 nM each time.

Regarding `CON(C)C(=O)[C@H]1CC[C@H]2[C@@H]3CNC4=CC(=O)CC[C@]4(C)[C@H]3CC[C@]12C` [Compound 21, 17β-N-Methoxy-N-methylcarbamoyl-6-azaandrost-4-en-3-one], the values for the IC50 at Steroid 5-α-Reductase [1] and at Steroid 5-α-Reductase [2] were 100 to 1000 nM and less than 10 nM, respectively.

For the compound `CN1C[C@H]2[C@@H]3CC[C@H](C(=O)NC45CC6CC(CC(C6)C4)C5)[C@@]3(C)CC[C@@H]2[C@@]2(C)CCC(=O)C=C12` [Compound 20, 17β-N-1-Adamantylcarbamoyl-6-methyl-6-azaandrost-4-en-3-one], the IC50 at Steroid 5-α-Reductase [1] and on Steroid 5-α-Reductase [2] was less than 10 nM throughout.

With `CCN(CC)C(=O)[C@H]1CC[C@H]2[C@@H]3CCNC4=CC(=O)CC[C@]4(C)[C@H]3CC[C@]12C` [Compound 77, 17β-N,N-Diethylcarbamoyl-6-aza-B-homoandrost-4-en-3-one], the figures for the IC50 at Steroid 5-α-Reductase [1] and at Steroid 5-α-Reductase [2] were 100 to 1000 nM and 10 to 100 nM, respectively.

Turning to `C[C@]12CC[C@H]3[C@@H](CNC4=CC(=O)CC[C@@]43C)[C@@H]1CC[C@@H]2C(=O)NC1CC2CCC1C2` (stereo partly drawn) [Compound 61, 17β-N-endo-2-Norbornylcarbamoyl-6-azaandrost-4-en-3-one], the IC50 at Steroid 5-α-Reductase [1] and at Steroid 5-α-Reductase [2] was 10 to 100 nM throughout.

For the compound `C[C@]12CC[C@H]3[C@@H](CNC4=CC(=O)CC[C@@]43C)[C@@H]1CC[C@@H]2C(=O)N(c1ccccc1)c1ccccc1` [Compound 59, 17β-N-Diphenylcarbamoyl-6-azaandrost-4-en-3-one], the IC50 is 100 to 1000 nM at Steroid 5-α-Reductase [1] and less than 10 nM against Steroid 5-α-Reductase [2].

For the compound `CC(C)N(C(=O)[C@H]1CC[C@H]2[C@@H]3CN(C)C4=CC(=O)CC[C@]4(C)[C@H]3CC[C@]12C)C(C)C` [Compound 18, 17β-N,N-Diisopropylcarbamoyl-6-methyl-6-azaandrost-4-en-3-one], the values for the IC50 at Steroid 5-α-Reductase [1] and at Steroid 5-α-Reductase [2] were 10 to 100 nM and less than 10 nM, respectively.

On to `CC1=C2NC[C@H]3[C@@H]4CC[C@H](C(=O)CC(C)C)[C@@]4(C)CC[C@@H]3[C@@]2(C)CCC1=O` [Compound 64, 17β-(1-Oxo-3-methylbutyl)-6-azaandrost-4-methyl-4-en-3-one], for which the figures for the IC50 at Steroid 5-α-Reductase [1] and on Steroid 5-α-Reductase [2] were 10 to 100 nM and less than 10 nM, respectively.

For `C[C@]12CC[C@H]3[C@@H](CNC4=CC(=O)CC[C@@]43C)[C@@H]1CC[C@@H]2C(=O)N1CCOCC1` [Compound 23, 17β-N-Morpholinocarbamoyl-6-azaandrost-4-en-3-one], the IC50 on Steroid 5-α-Reductase [1] was 100 to 1000 nM; against Steroid 5-α-Reductase [2], 10 to 100 nM.

For the compound `C[C@]12CC[C@H]3[C@@H](CNC4=CC(=O)CC[C@@]43C)[C@@H]1CC[C@@H]2C(=O)Nc1cccc2cc3ccccc3cc12` [Compound 67, 17β-N-1-Anthracylcarbamoyl-6-azaandrost-4-en-3-one], the IC50 at Steroid 5-α-Reductase [1] and against Steroid 5-α-Reductase [2] was less than 10 nM each time.

With `C[C@]12CC[C@H]3[C@@H](CNC4=CC(=O)CC[C@@]43C)[C@@H]1CC[C@@H]2C(=O)NC(c1ccccc1)c1ccccc1` [Compound 58, 17β-N-Diphenylmethylcarbamoyl-6-azaandrost-4-en-3-one], the IC50 on Steroid 5-α-Reductase [1] was 10 to 100 nM; on Steroid 5-α-Reductase [2], less than 10 nM.

With `CC(C)CC(=O)[C@H]1CC[C@H]2[C@@H]3CNC4=CC(=O)CC[C@]4(C)[C@H]3CC[C@]12C` [Compound 5, 17β-(1-Oxo-3-methylbutyl)-6-azaandrost-4-en-3-one], the values for the IC50 on Steroid 5-α-Reductase [1] and on Steroid 5-α-Reductase [2] were 10 to 100 nM and less than 10 nM, respectively.

With `CCN(CC)C(=O)[C@H]1CC[C@H]2[C@@H]3CNC4=C(Br)C(=O)CC[C@]4(C)[C@H]3CC[C@]12C` [Compound 9, 17β-N,N-Diethylcarbamoyl-6-azaandrost-4-bromo-4-en-3-one], the IC50 is 100 to 1000 nM at Steroid 5-α-Reductase [1] and less than 10 nM against Steroid 5-α-Reductase [2].

As for `CN1C[C@H]2[C@@H]3CC[C@H](C(=O)NC(C)(C)C)[C@@]3(C)CC[C@@H]2[C@@]2(C)C=CC(=O)C=C12` [Compound 29, 17β-N-t-Butylcarbamoyl-6-methyl-6-azaandrost-1,4-dien-3-one], the IC50 is 100 to 1000 nM on Steroid 5-α-Reductase [1] and 10 to 100 nM against Steroid 5-α-Reductase [2].

With `CCN(CC)C(=O)[C@H]1CC[C@H]2[C@@H]3CN(C)C4=CC(=O)CC[C@]4(C)[C@H]3CC[C@]12C` [Compound 2, 17β-N,N-Diethylcarbamoyl-6-methyl-6-azaandrost-4-en-3-one], the IC50 is 10 to 100 nM at Steroid 5-α-Reductase [1] and less than 10 nM at Steroid 5-α-Reductase [2].

With `C[C@]12CC[C@H]3[C@@H](CNC4=CC(=O)CC[C@@]43C)[C@@H]1CC[C@@H]2C(=O)Sc1ccccn1` [Compound 4, 17β-(2-Pyridinylthiocarbonyl)-6-azaandrost-4-en-3-one], the IC50 was 100 to 1000 nM at Steroid 5-α-Reductase [1] and less than 10 nM at Steroid 5-α-Reductase [2].

As to `CC1=C2NC[C@H]3[C@@H]4CC[C@H](C(=O)NC56CC7CC(CC(C7)C5)C6)[C@@]4(C)CC[C@@H]3[C@@]2(C)CCC1=O` [Compound 56, 17β-N-1-Adamantylcarbamoyl-6-azaandrost-4-methyl-4-en-3-one], the IC50 on Steroid 5-α-Reductase [1] was less than 10 nM; at Steroid 5-α-Reductase [2], 10 to 100 nM.

Turning to `CCN(CC)C(=O)[C@H]1CC[C@H]2[C@@H]3CNC4=CC(=O)C=C[C@]4(C)[C@H]3CC[C@]12C` [Compound 6, 17β-N,N-Diethylcarbamoyl-6-azaandrost-1,4-dien-3-one], the results for the IC50 at Steroid 5-α-Reductase [1] and on Steroid 5-α-Reductase [2] were 100 to 1000 nM and 10 to 100 nM, respectively.
